# Data taken from PMC12102218 (Nature Communications, 2025).
# Target: T1, ENPP1 (Homo sapiens, UniProt P22413)
# T1 sequence (P22413 1-925): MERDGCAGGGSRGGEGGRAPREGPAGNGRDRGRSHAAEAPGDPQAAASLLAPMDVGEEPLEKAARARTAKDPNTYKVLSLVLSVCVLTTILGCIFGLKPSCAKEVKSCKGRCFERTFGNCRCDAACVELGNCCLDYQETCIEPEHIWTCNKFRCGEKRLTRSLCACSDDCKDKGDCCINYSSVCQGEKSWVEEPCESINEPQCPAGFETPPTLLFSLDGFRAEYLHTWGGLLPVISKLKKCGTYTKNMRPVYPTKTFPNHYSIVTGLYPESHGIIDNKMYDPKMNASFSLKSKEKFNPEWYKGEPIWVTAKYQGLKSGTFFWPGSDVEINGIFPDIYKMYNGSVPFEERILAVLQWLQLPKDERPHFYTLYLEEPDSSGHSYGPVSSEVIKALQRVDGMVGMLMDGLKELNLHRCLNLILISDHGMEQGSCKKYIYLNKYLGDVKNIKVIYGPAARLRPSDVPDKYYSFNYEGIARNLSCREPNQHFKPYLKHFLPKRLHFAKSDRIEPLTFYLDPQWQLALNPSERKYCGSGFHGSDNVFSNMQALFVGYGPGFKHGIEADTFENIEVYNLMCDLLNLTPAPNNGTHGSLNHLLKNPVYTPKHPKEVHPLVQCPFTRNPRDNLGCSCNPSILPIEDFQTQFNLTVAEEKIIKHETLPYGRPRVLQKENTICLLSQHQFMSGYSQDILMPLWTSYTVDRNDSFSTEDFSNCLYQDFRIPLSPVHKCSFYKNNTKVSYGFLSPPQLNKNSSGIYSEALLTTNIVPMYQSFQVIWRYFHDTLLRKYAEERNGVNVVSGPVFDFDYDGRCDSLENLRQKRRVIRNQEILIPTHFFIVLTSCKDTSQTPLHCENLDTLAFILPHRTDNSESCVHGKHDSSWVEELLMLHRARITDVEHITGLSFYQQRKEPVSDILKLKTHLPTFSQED
# Test: ENPP1 enzymatic assay, cGAMP hydrolysis
# Type: biochemical
substance,measurement,value
QS1,IC50,142 nM
